The source of these data is patent publication US7981863B2, “Treatment of Parkinson's disease with PDGF” (Neuronova AB, priority 2001, dated 2011).

Assay [1] deals with rat neural stem cells from the adult lateral ventricle wall. Kind of assay: Expansion of rat neural stem cell cultures, total cell counts at 7 days. Type of assay: cell-based. To be noted: for block of the VEGF response / growth of neural stem cell cultures: total cell counts at 7 days; for growth of neural stem cell cultures: growth conditions (EGF and FGF-2), no recombinant VEGF, FIG. 30. The method, then:
Neural stem cells were prepared according to the attached protocol. Cells were grown in serum-free medium, subcloned and used between passage 6 and 10. If not otherwise mentioned the experiments consisted of triplets for analysis and were independently repeated at least 3 times.
Basal Medium: Neurobasal medium (NB, Gibco BRL) & B27 supplement (Gibco BRL).
Growth Medium: NB, B27 supplement+20 ng/ml of FGF-2 (R&D Systems)+20 ng/ml EGF (R&D Systems)+2 μg/ml heparin (Sigma, Germany).
Cells were plated in Growth medium at 10.000 cells/ml and after 2 days switched to the experimental condition. Cells were kept under the experimental condition for 7 days.
Adult female Fischer-344 rats (3-4 months; Charles River, Germany) were killed via cervical dislocation, the brains of each rat were removed and stored at 4° C. in DPBS (PAN, Germany) with 4.5 g/L glucose (Merck, Germany) (DPBS/glu). Overlying meninges and blood vessels were removed. Ependymal zone including subependymal/subventricular zone form the lateral wall of the lateral ventricle were aseptically removed. The dissected tissue was transferred to fresh DPBS/glu, washed once, transferred to petri-dishes and dissociated mechanically into a single cell suspension. The cell suspension was washed in DPBS/glu in order to rinse off excess blood and resuspended in PPD-solution containing 0.01% Papain (Worthington Biochemicals, England), 0.1% dispase II (Boehringer, Germany), 0.01% DNase I (Worthington Biochemicals, England) and 12.4 mM MgSO4 in HBSS (PAN, Germany) without Mg^++/Ca^++ (PAA, Germany) and digested for 30 to 40 min at room temperature. The cell solution was triturated every 10 min. Dissociated cells were collected and resuspended in serum-free DMEM/F12 medium containing 2 mM L-glutamine and 0.1 g/L penicillin/streptomycin and washed three times with accurate trituration with a blue tip. Finally the single cell suspension was resuspended in Neurobasal medium (Gibco BRL, Germany) supplemented with B27 (Gibco BRL, Germany) (NB/B27), 2 mM L-glutamine (PAN, Germany), 0.1 g/L penicillin/streptomycin (PAN, Germany), 2 μg/ml heparin (Sigma, Germany), 20 ng/ml bFGF-2 (R&D Systems, Germany) and 20 ng/ml EGF (R&D Systems, Germany). Live cells were counted by trypan blue exclusion assay in a hemocytometer. Cells were seeded in T-25 culture flasks and cultures were maintained at 37° C. in an incubator with 95% air, 5% CO2. Single cells began to form spheres within 5 to 7 days of suspension culture and continued to grow in mass and number over the next weeks. Media were changed every 7 days.
The culture medium containing floating neurospheres was collected in a 15 ml centrifuge tube and centrifuged at 800 rpm. The pellet was resuspended in 200 μl of Accutase (Innovative Cell Technologies Inc., USA, distributed by PAA, Germany) and triturated about 10 times using a pipette. Then, the cell suspension was incubated at 37° C. for 10 min. Dissociated spheres were again triturated and resuspended in 800 μl of NB/B27 medium. An aliquot was counted by trypan blue exclusion assay in a hemocytometer to determine the amount of live and dead cells. 1×10^5 cells were plated in T75 culture flasks for long term passaging (10 ml of culture medium per flask) in NB/B27 medium. The cells obtained after Accutase-treatment of primary neurospheres proliferated and yielded secondary neurospheres. Secondary neurospheres were passaged 7 to 9 days after plating primary neurosphere cells. Similar to primary cultures and primary neurospheres, single cells obtained after dissociation of secondary neurospheres proliferated and yielded tertiary neurospheres. […]

A further assay concerns Flk-1. The note with it: Calbiochem product data; cited from earlier work.
For another assay, the system named is adult rats. To be noted: four weeks after 7 days of continuous VEGF infusion into the lateral ventricle.
The subject of assay [2] is cells from the lateral ventricle wall. To be noted: after intraventricular infusion, compared to aCSF controls; FIG. 33.
Assay [3] relates to Neural stem cell cultures. To be noted: 50 ng/ml VEGF, 100 nM PADQ or 700 nM SU1498 for 7 days. The method, then:
BrdU (10 μM) was added to the culture medium 24 hrs before cells were harvested and lysed. DNA was extracted and BrdU content was determined using an anti-BrdU-ELISA. The data are presented as percent changes in optical density compared to control (Growth medium).

Assay [4] concerns cultured, non-adherent mouse neurospheres. Kind of assay: Intracellular ATP assay, proliferation of cultured mouse neurospheres. It counts as cell-based. To be noted: FIG. 1. The method, then: The anterior lateral wall of the lateral ventricle of 5-6 week old mice was enzymatically dissociated in 0.8 mg/ml hyaluronidase and 0.5 mg/ml trypsin in DMEM containing 4.5 mg/ml glucose and 80 units/ml DNase at 37° C. for 20 min. The cells were gently triturated and mixed with three volumes of Neurosphere medium (DMEM/F12, B27 supplement, 125 mM HEPES pH 7.4) containing 20 ng/ml EGF (unless otherwise stated), 100 units/ml penicillin and 100 μg/ml streptomycin. After passing through a 70 μm strainer, the cells were pelleted at 160×g for 5 min. The supernatant was subsequently removed and the cells resuspended in Neurosphere medium supplemented as above, plated out in culture dishes and incubated at 37° C. Neurospheres were ready to be split approximately 7 days after plating.
To split the neurospheres, cells were collected by centrifugation at 160×g for 5 min. The conditioned supernatant (conditioned medium) was removed and saved. The neurospheres were resuspended in 0.5 ml Trypsin/EDTA in HBSS (1×), incubated at 37° C. for 2 min and triturated gently to aid dissociation. Following a further 3 min incubation at 37° C. and trituration, 3 volumes of ice cold Neurosphere medium medium w/o EGF were added to stop further trypsin activity. […]
After 3 days of treatment, intracelluar ATP was measured using the ATP SL kit (Biothema) according to the manufacturer's instructions.

Assay [5] has as its system Mouse Cultured Neural Stemcells/Progenitors. Kind of assay: GFAP and β-III Tubulin in adherent mouse neural stem cells (Western blot, immunocytochemistry). It counts as cell-based. On the procedure: NSCs, cultured as described above, were seeded from passage 2 into DMEM/F12 supplemented with B27 into a 24-well plate (poly-D-lysine-coated) as single cells (70.000 cells/well), to which PDGF-AA was added at the concentration of 1 nM. The cells were then differentiated for 5 days changing medium plus/minus PDGF-AA every 48 hours. At day 6 the cells were harvested and Western blots were performed as described elsewhere (Patrone C et al (1999) Proc Natl Acad Sci USA. 96(19):10905-10). A neuronal marker antibody against β-III Tubulin, 1:5000 (BioSite), or a glial marker antibody against glial fibrillary acidic protein (GFAP) 1:5000, (DAKO) was used to measure phenotypic fates.
In another set of experiments the effects of PDGF-AA were studied with immunocytochemical methods in fixed adherently cultured neural stem cells. […] In other experiments with PDGF-AA, analyzed by immunocytochemistry, it was shown that the factor caused a general shift from a stem cell phenotype to a progenitor phenotype in that cultures contained both of the markers, GFAP and β-III Tubulin. […] In concurrent experiments the effect of PDGF-BB was also studied.

Another assay relates to Mouse Neural Stem Cells. Kind of assay: Neuronal differentiation (β-III Tubulin) of adult mouse neural stem cells. Type of assay: cell-based. To be noted: 1 nM, 7 days. On the procedure:
Adult mouse neurosperes were dissociated with trypsin (Gibco) into single cells and transferred to poly-D-Lysine plates (BD) in the above culture medium, without growth factors, supplemented with 1% Fetal Calf Serum (Gibco). The cells were incubated over night to adhere to the plate. The medium was changed to culture medium, without growth factors, supplemented with 1 nM PDGF-AA or PDFG-BB (both from R&D Systems). The medium with new substance added every second day. The cells were incubated for a total of 7 days.
The cells were washed two times with PBS (Gibco) and fixed for 15 min RT with 4% Formaldehyde (Sigma) and permeabilized 20 min RT in 0.1% Triton X-100 (Sigma) in PBS. After fixation and permeabilization the cells were labelled with mouse monoclonal anti-β-III Tubulin (1:500 Promega). Primary antibody was visualized with anti mouse Texas-Red (1:100 Vector Laboratories). All antibodies were diluted in PBS with 0.1% Triton X-100.
The cells were washed twice with PBS (Gibco) and lysed with 200 ul lysis buffer/well. The lysis buffer contained PBS, 0.1% Triton X-100, 1 mM EDTA and 1 tab1. Protease inhibitor cocktail (Roche). The samples were run on a 4-12% Bis-Tris gel (Novex) under reduced conditions with MOPS buffer (Novex) and blotted onto a Hybond ECL nitrocellulose membrane (Amersham Biotech). Blocked in 5% ECL-Block (Amersham Biotech) in PBS+0.1% Tween 20 (Sigma). The membranes were labelled with mouse monoclonal anti-β-III Tubulin (1:5000 Promega). The primary antibody was detected using a secondary antibody anti-mouse-HRP (1:10000 Amersham Biotech) and ECL Plus+ Western Blot Detection Kit (Amersham Biotech). All antibodies were diluted in PBS with 0.1% Triton X-100, 1% ECL Block. The signal were then captured on ECL Hyper Film (Amersham Biotech)

[6] abbreviates: basal medium, VEGF 50 ng/ml, PADQ 100 nM, SU1498 700 nM.
Setting [7] is: growth conditions (including EGF and FGF-2).
The mark [8] stands for this setting: 1 nM, 6 days, adherent culture, compared to treatment with EGF.
Where [9] appears, read: fixed adherently cultured neural stem cells.

In the case of `CC(C)c1cc(/C=C(\C#N)C(=O)NCCCc2ccccc2)cc(C(C)C)c1O` [SU1498, (E)-3-(3,5-Diisopropyl-4-hydroxyphenyl)-2-[(3-phenyl-n-propyl)amino-carbonyl]acrylonitrile], the “block of the VEGF response” value in assay [1] (setting [6]) and in assay [1] (setting [7]) was “able to block the VEGF response” in each case. Besides, in assay [1], the “growth of neural stem cell cultures” value is recorded as “significantly reduce the growth”. In addition, the 50% inhibitory concentration (IC50) with Flk-1 was 0.7 µM.
As to VEGF, in assay [1] (different concentrations, 7 days, FIG. 24, FIG. 25), the “stimulation of proliferation of neural stem cell cultures” value was “dose-dependent stimulatory effect”. Further, in assay [1] (growth medium, 7 days, FIG. 27), the “ED50 (expansion of neural stem cell cultures)” value is approximately 0.01 µg/mL and the “concentration of maximal stimulation” value was determined as 50 ng/mL. Also, the “BrdU labeled cells in the dentate gyrus” value in the assay with adult rats is on record as “marked increase”. Besides, the “number of spheres formed in culture from lateral ventricle wall cells” value in assay [2] was “significantly increased”. For the same molecule, in assay [3], the “BrdU incorporation (proliferation ELISA)” value is listed as “more BrdU” and the “DNA strand breaks (apoptosis ELISA)” value is listed as “reduced the amount of DNA strand breaks”.
Regarding `COc1cc2ncnc(Nc3ccc(Cl)cc3F)c2cc1OC` [PADQ], the “block of the VEGF response” value in assay [1] (setting [6]) and in assay [1] (setting [7]) was “able to block the VEGF response” throughout. Moreover, in assay [1], the “growth of neural stem cell cultures” value is “significantly reduce the growth”. The IC50 in the assay on Flk-1 is 0.1 µM.
On to “PDGF-AA: human recombinant PDGF-AA, platelet derived growth factor A-chain homodimer”, for which, in assay [4] (PDGF-AA added together with PDGF-BB, B27 medium), the “effect on the proliferative effect of PDGF-BB when added together” value is recorded as “did not alter the proliferative effect of PDGF-BB”. The “proliferative effect (intracellular ATP)” value in assay [4] (growth media supplemented with B27, 1 nM-0.0005 nM, 3 days of treatment) is reported as “weaker compared to BB”. For the same molecule, in assay [5] (setting [8]), the “GFAP (Western blot)” value is on record as “downregulation of GFAP” and the “β-III Tubulin neuronal marker (Western blot)” value is “significant increase”. In assay [5] (setting [9]), the “GFAP (immunocytochemistry)” value was “down regulation of GFAP” and the “β-III Tubulin (immunocytochemistry)” value is listed as “upregulation of β-III Tubulin”. Besides, the “number of β-III Tubulin positive cells in culture” value with Mouse Neural Stem Cells (compared to the control, FIG. 5) was “significantly increase the number of β-III Tubulin positive cells”. For the same molecule, the “levels of β-III Tubulin protein (Western blot)” value in the assay on Mouse Neural Stem Cells (compared with the control, FIG. 6) is recorded as “significantly increased levels of β-III Tubulin protein”. Besides, in the assay on Mouse Neural Stem Cells (FIG. 5 and FIG. 6), the “neuronal differentiation of cultured mouse neural stem cells/progenitors” value is “trigger neuronal differentiation”.
